Test: solvent given as SMILES

C=CCCCC
Conditions	solvation free energy, 298 K [kcal/mol]
in C1CCC2CCCCC2C1	-3.67
in C1CCC(C2CCCCC2)CC1	-3.65
in C=CCCCCCCCCCCCCCC	-3.48
in CC#N	-2.96
in CC(C)CC(C)(C)C	-3.78
in CCC#N	-3.49
in CCCC#N	-3.2
in CCCCC(CC)COC(=O)CCCCC(=O)OCC(CC)CCCC	-3.36
in CCCCC(CC)COC(=O)c1ccccc1C(=O)OCC(CC)CCCC	-3.18
in CCCCCCC	-3.83
in CCCCCCCCC=CCCCCCCCC(=O)OCC(COC(=O)CCCCCCCC=CCCCCCCCC)OC(=O)CCCCCCCC=CCCCCCCCC	-3.41
in CCCCCCCCCCCCCCCC	-3.51
in CCCCCCCCO	-3.29
in CCCCCO	-3.3
in CCCCO	-3.22
in CCCCOC(=O)c1ccccc1C(=O)OCCCC	-3.37
in CCN1CCCC1=O	-3.11
in CCN(CC)C(C)=O	-3.26
in CCNC(C)=O	-3.04
in CCNC=O	-2.85
in CCOC(=O)c1ccccc1C(=O)OCC	-2.96
in CN1CCCC1=O	-2.91
in CN1CCCCC1=O	-3.06
in CN1CCN(C)C1=O	-2.83
in CN(C)C=O	-2.96
in CNC=O	-2.55
in COC(C)=O	-3.51
in CS(C)=O	-2.1
in Cc1cccc(C)c1	-3.74
in N#CCCCCC#N	-2.31
in N#Cc1ccccc1	-3.15
in NC=O	-0.91
in NCCO	-1.17
in Nc1ccccc1	-2.68
in O	1.58
in O=C1CCCO1	-2.49
in O=CN1CCOCC1	-2.37
in O=Cc1ccco1	-2.62
in OCCO	-1.11
in OCCOCCO	-1.73
in OCCOCCOCCO	-1.83
in OCCOCCOCCOCCO	-1.94
in OCc1ccco1	-2.53
in c1ccc2c(c1)CCCC2	-3.69
in c1ccc(C2CCCCC2)cc1	-3.63

Cc1ccccc1N
Conditions	solvation free energy, 298 K [kcal/mol]
in CC(C)CC(C)(C)C	-6.37
in CCCCCC	-6.13
in CCCCCCC	-6.22
in CCCCCCCC	-6.34
in CCCCCCCCCC	-6.64
in Cc1cccc(C)c1	-7.32
in Cc1ccccc1C	-7.39
in O	-5.55

Clc1ccc(-c2c(Cl)c(Cl)cc(Cl)c2Cl)cc1Cl
Conditions	solvation free energy, 298 K [kcal/mol]
in O	-4.38

COC(CC#N)(OC)OC
Conditions	solvation free energy, 298 K [kcal/mol]
in O	-6.4

ICI
Conditions	solvation free energy, 298 K [kcal/mol]
in O	-2.49

CCCC
Conditions	solvation free energy, 298 K [kcal/mol]
in C1CCC2CCCCC2C1	-2.25
in C1COCCO1	-2.13
in CC1COC(=O)O1	-1.19
in CC#N	-1.49
in CC(=O)N(C)C	-1.75
in CC(C)(C)O	-2.07
in CC(C)=O	-2.13
in CC(C)CCO	-2.02
in CC(C)CO	-2.03
in CC(C)O	-2.03
in CC(CC(C)(C)C)CC(C)(C)CC(C)(C)C	-2.97
in CCC(C)(C)O	-2.16
in CCC(C)=O	-2.31
in CCC(C)CO	-2.03
in CCC(O)CC	-2.07
in CCCC(C)O	-2.03
in CCCCC	-2.61
in CCCCCC	-2.55
in CCCCCCC	-2.54
in CCCCCCCC	-2.49
in CCCCCCCCC	-2.43
in CCCCCCCCCC	-2.43
in CCCCCCCCCCCC	-2.32
in CCCCCCCCCCCCC	-2.31
in CCCCCCCCCCCCCC	-2.23
in CCCCCCCCCCCCCCC	-2.24
in CCCCCCCCCCCCCCCC	-2.21
in CCCCCCCCO	-2.09
in CCCCCCCO	-1.96
in CCCCCO	-2.03
in CCCCO	-1.87
in CCCCOCCCC	-2.44
in CCCO	-1.98
in CCO	-1.91
in CN1CCCC1=O	-1.56
in CN(C)C=O	-1.47
in CN(C)P(=O)(N(C)C)N(C)C	-1.85
in CO	-1.73
in COC(C)=O	-1.95
in COCCOCCO	-1.36
in COCCOCCOC	-1.89
in COCCOCCOCCOC	-1.64
in COCCOCCOCCOCCOC	-1.62
in CS(C)=O	-0.99
in Cc1ccc(C)cc1	-2.33
in Cc1cccc(C)c1	-2.34
in Cc1ccccc1C	-2.31
in ClC(Cl)(Cl)Cl	-2.67
in Clc1ccccc1	-2.32
in Ic1ccccc1	-2.05
in N#Cc1ccccc1	-1.93
in NC=O	-0.12
in Nc1ccccc1	-1.4
in O	2.07
in O=CN1CCOCC1	-0.91
in OC1CCCCC1	-1.8
in OCCCOCCCO	-1.24
in OCCO	-0.29
in OCc1ccccc1	-1.51
in c1ccccc1	-2.39

CCCCCNCc1ccc(C)cc1
Conditions	solvation free energy, 298 K [kcal/mol]
in O	-5.21

CCCCOC(=O)c1ccc(O)cc1
Conditions	solvation free energy, 298 K [kcal/mol]
in O	-8.72

N#CCc1ccc(C(=O)O)cc1
Conditions	solvation free energy, 298 K [kcal/mol]
in C=CCCCCCCCCCCCCCC	-10.2
in O	-12.9

CCCCP(=O)(CCCC)CCCC
Conditions	solvation free energy, 298 K [kcal/mol]
in O	-11.1

O=C(O)c1ccc2ccccc2c1
Conditions	solvation free energy, 298 K [kcal/mol]
in C=CCCCCCCC=C	-9.58
in C=CCCCCCCCCCCCCCC	-9.37
in O	-8.54

C=CCC(C)C
Conditions	solvation free energy, 298 K [kcal/mol]
in C=CCCCCCCCCCCCCCC	-3.23
in O	1.9

CCC(C)CCC(C)C (stereo unspecified)
Conditions	solvation free energy, 298 K [kcal/mol]
in CCCO	-4.64

C=CC#N
Conditions	solvation free energy, 298 K [kcal/mol]
in O	-3.34

Clc1ccc(-c2ccccc2Cl)cc1
Conditions	solvation free energy, 298 K [kcal/mol]
in CCCCCCCCO	-10
in O	-2.58

C=C1CCC2C1C1C(C(C)C)CCC21C (stereo unspecified)
Conditions	solvation free energy, 298 K [kcal/mol]
in O	1.19

Source: the CombiSolv-Exp solvation set (Vermeire and Green 2021)
